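In this assay, cells in 96-well plates receive the compound at five concentrations for 48 hours. Endpoints are linearly interpolated between the surrounding concentrations. Abbreviation: GI50, concentration required for 50% inhibition of growth. TGI denotes the concentration required for complete inhibition of growth.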
Columns and labels:
Test in all cases: growth of human tumour cells (NCI), 48 h
[1] = system: DMS 273 small cell lung
[2] = system: NCI-H23 lung
[3] = system: SF-539 CNS
[4] = system: NCI-H226 lung
[5] = system: DMS 114 small cell lung
[6] = system: TK-10 renal
[7] = system: LXFL 529 NSCLC
[8] = system: SF-295 CNS
[9] = system: NCI-H460 lung
[10] = system: SK-OV-3 ovarian
[11] = system: M19-MEL melanoma
[12] = system: HOP-92 NSCLC
[13] = system: HOP-62 NSCLC
[14] = system: KM20L2 colon
[15] = system: SN12C renal
[16] = system: SW-620 colon
[17] = system: RPMI-8226 leukemia
[18] = system: SNB-78 CNS
[19] = system: A549 NSCLC
[20] = system: SNB-75 CNS
[21] = system: COLO 205 colon
[22] = system: HOP-18 NSCLC
[23] = system: OVCAR-5 ovarian
[24] = system: HT29 colon
[25] = system: SK-MEL-28 melanoma
[26] = system: CCRF-CEM leukemia
[27] = system: UO-31 renal
[28] = system: OVCAR-4 ovarian
[29] = system: A498 renal
[30] = system: M14 melanoma
[31] = system: ACHN renal
[32] = system: OVCAR-3 ovarian
[33] = system: HCC-2998 colon
[34] = system: CAKI-1 renal
[35] = system: SF-268 CNS
[36] = system: SNB-19 CNS
[37] = system: SR leukemia
[38] = system: UACC-62 melanoma
[39] = system: U251 CNS
[40] = system: 786-0 renal
[41] = system: OVCAR-8 ovarian
[42] = system: HCT-116 colon
[43] = system: IGROV1 ovarian
[44] = system: EKVX NSCLC
[45] = system: UACC-257 melanoma
[46] = system: MOLT-4 leukemia
[47] = system: LOX IMVI melanoma
[48] = system: RXF 393 renal
[49] = system: SK-MEL-5 melanoma
[50] = system: MALME-3M melanoma
[51] = system: NCI-H522 lung
[52] = system: DLD-1 colon
[53] = system: RXF-631 renal
[54] = system: HL-60(TB) leukemia
[55] = system: K-562 leukemia
[56] = system: KM12 colon
[57] = system: HCT-15 colon
[58] = system: XF 498 CNS
[59] = system: SK-MEL-2 melanoma

CCC[CH2][Sn]1([CH2]CCC)[O]C(=O)c2ccc(C)cc2[O]1
GI50 [1]: 0.55 µM
TGI [1]: 2.62 µM
GI50 [2]: 0.472 µM
TGI [2]: 1.76 µM
GI50 [3]: 0.518 µM
TGI [3]: 1.73 µM
GI50 [4]: 1.5 µM
TGI [4]: 2.93 µM
GI50 [5]: 0.21 µM
TGI [5]: 0.587 µM
GI50 [6]: 0.297 µM
TGI [6]: 0.766 µM
GI50 [7]: 0.158 µM
TGI [7]: 0.372 µM
GI50 [8]: 1.21 µM
TGI [8]: 2.52 µM
GI50 [9]: 1.77 µM
TGI [9]: 4.12 µM
GI50 [10]: 1.4 µM
TGI [10]: 2.75 µM
GI50 [11]: 0.322 µM
TGI [11]: 1.33 µM
GI50 [12]: 0.326 µM
TGI [12]: 1.24 µM
GI50 [13]: 2.16 µM
TGI [13]: 3.88 µM
GI50 [14]: 1.21 µM
TGI [14]: 2.46 µM
GI50 [15]: 0.511 µM
TGI [15]: 1.77 µM
GI50 [16]: 0.174 µM
TGI [16]: 0.4 µM
GI50 [17]: 0.21 µM
TGI [17]: 0.76 µM
GI50 [18]: 0.526 µM
TGI [18]: 2.34 µM
GI50 [19]: 1.57 µM
TGI [19]: 2.97 µM
GI50 [20]: 0.226 µM
TGI [20]: 0.659 µM
GI50 [21]: 0.465 µM
TGI [21]: 1.61 µM
GI50 [22]: 1.01 µM
TGI [22]: 2.19 µM
GI50 [23]: 1.67 µM
TGI [23]: 3.05 µM
GI50 [24]: 1.34 µM
TGI [24]: 2.97 µM
GI50 [25]: 0.412 µM
TGI [25]: 1.45 µM
GI50 [26]: 0.222 µM
TGI [26]: 0.874 µM
GI50 [27]: 0.845 µM
TGI [27]: 2.08 µM
GI50 [28]: 1.11 µM
TGI [28]: 2.43 µM
GI50 [29]: 0.367 µM
TGI [29]: 1.06 µM
GI50 [30]: 0.584 µM
TGI [30]: 1.84 µM
GI50 [31]: 0.404 µM
TGI [31]: 1.42 µM
GI50 [32]: 1.18 µM
TGI [32]: 2.43 µM
GI50 [33]: 1.14 µM
TGI [33]: 2.38 µM
GI50 [34]: 0.229 µM
TGI [34]: 0.669 µM
GI50 [35]: 0.46 µM
TGI [35]: 1.46 µM
GI50 [36]: 0.32 µM
TGI [36]: 1.12 µM
GI50 [37]: 0.255 µM
TGI [37]: 1.25 µM
GI50 [38]: 0.437 µM
TGI [38]: 1.57 µM
GI50 [39]: 0.316 µM
TGI [39]: 1.16 µM
GI50 [40]: 1 µM
TGI [40]: 2.17 µM
GI50 [41]: 0.818 µM
TGI [41]: 2.1 µM
GI50 [42]: 0.985 µM
TGI [42]: 2.18 µM
GI50 [43]: 1.17 µM
TGI [43]: 2.44 µM
GI50 [44]: 0.994 µM
TGI [44]: 2.23 µM
GI50 [45]: 0.316 µM
TGI [45]: 1.49 µM
GI50 [46]: 0.222 µM
TGI [46]: 0.621 µM
GI50 [47]: 0.184 µM
TGI [47]: 0.357 µM
GI50 [48]: 0.306 µM
TGI [48]: 0.839 µM
GI50 [49]: 1.38 µM
TGI [49]: 2.7 µM
GI50 [50]: 0.327 µM
TGI [50]: 1.44 µM
GI50 [51]: 0.113 µM
TGI [51]: 0.239 µM
GI50 [52]: 0.658 µM
TGI [52]: 1.98 µM
GI50 [53]: 0.138 µM
TGI [53]: 0.32 µM
GI50 [54]: 0.273 µM
TGI [54]: 1.01 µM
GI50 [55]: 0.247 µM
TGI [55]: 0.846 µM
GI50 [56]: 1.06 µM
TGI [56]: 2.36 µM

CCOP(=O)(OCC)C(C(=O)OC)C(=O)C(=O)Nc1c(C)cc(Br)cc1C (configuration not stated)
TGI [1]: > 100 µM
TGI [2]: > 100 µM
TGI [3]: > 100 µM
TGI [4]: > 100 µM
TGI [5]: > 100 µM
TGI [6]: > 100 µM
TGI [7]: > 100 µM
TGI [9]: > 100 µM
TGI [10]: > 100 µM
TGI [11]: > 100 µM
TGI [12]: > 100 µM
TGI [13]: > 100 µM
TGI [14]: > 100 µM
TGI [15]: > 100 µM
TGI [16]: > 100 µM
TGI [17]: > 100 µM
TGI [18]: > 100 µM
TGI [19]: > 100 µM
TGI [20]: > 100 µM
TGI [21]: > 100 µM
TGI [22]: > 100 µM
TGI [23]: > 100 µM
TGI [24]: > 100 µM
TGI [57]: > 100 µM
TGI [25]: > 100 µM
TGI [26]: > 100 µM
TGI [27]: > 100 µM
TGI [28]: > 100 µM
TGI [29]: > 100 µM
TGI [30]: > 100 µM
TGI [31]: > 100 µM
TGI [32]: > 100 µM
TGI [33]: > 100 µM
TGI [34]: > 100 µM
TGI [35]: > 100 µM
TGI [36]: > 100 µM
TGI [38]: > 100 µM
TGI [58]: > 100 µM
TGI [39]: > 100 µM
TGI [40]: > 100 µM
TGI [41]: > 100 µM
TGI [59]: > 100 µM
TGI [42]: > 100 µM
TGI [43]: > 100 µM
TGI [44]: > 100 µM
TGI [45]: > 100 µM
TGI [46]: > 100 µM
TGI [47]: > 100 µM
TGI [48]: > 100 µM
TGI [49]: > 100 µM
TGI [50]: > 100 µM
TGI [51]: > 100 µM
TGI [52]: > 100 µM
TGI [53]: > 100 µM
TGI [54]: > 100 µM
TGI [55]: > 100 µM
TGI [56]: > 100 µM

CC[C@@H]1C[C@H]2CC3c4[nH]c5ccc(O)cc5c4CCN(C2)C31
TGI [1]: > 100 µM
TGI [2]: > 100 µM
TGI [3]: > 100 µM
TGI [4]: > 100 µM
TGI [5]: > 100 µM
TGI [6]: > 100 µM
TGI [7]: > 100 µM
TGI [8]: > 100 µM
TGI [9]: > 100 µM
TGI [11]: > 100 µM
TGI [12]: > 100 µM
TGI [13]: > 100 µM
TGI [14]: > 100 µM
TGI [15]: > 100 µM
TGI [16]: > 100 µM
TGI [17]: > 100 µM
TGI [18]: > 100 µM
TGI [19]: > 100 µM
TGI [20]: > 100 µM
TGI [21]: > 100 µM
TGI [22]: > 100 µM
TGI [23]: > 100 µM
TGI [24]: > 100 µM
TGI [57]: > 100 µM
TGI [25]: > 100 µM
TGI [26]: > 100 µM
TGI [27]: > 100 µM
TGI [30]: > 100 µM
TGI [31]: > 100 µM
TGI [32]: > 100 µM
TGI [33]: > 100 µM
TGI [34]: > 100 µM
TGI [35]: > 100 µM
TGI [36]: > 100 µM
TGI [37]: > 100 µM
TGI [38]: > 100 µM
TGI [58]: > 100 µM
TGI [39]: > 100 µM
TGI [40]: > 100 µM
TGI [41]: > 100 µM
TGI [59]: > 100 µM
TGI [42]: > 100 µM
TGI [43]: > 100 µM
TGI [44]: > 100 µM
TGI [45]: > 100 µM
TGI [46]: > 100 µM
TGI [47]: > 100 µM
TGI [48]: > 100 µM
TGI [50]: > 100 µM
TGI [53]: > 100 µM
TGI [54]: > 100 µM
TGI [55]: > 100 µM
TGI [56]: > 100 µM

Reference: PubChem BioAssay (NCI)
